In patent publication US7595401B2, “Therapeutic compounds and their use in cancer” (Myriad Pharmaceuticals, Inc., priority 2006, dated 2009):

Columns and labels:
Luciferase refolding = Luciferase refolding assay; format: biochemical; parameters: key: *Compound is active in Luciferase refolding assay; conditions: compound fluorescent in FP binding assay
purified human Hsp90 = assay: Binding Assay: fluorescence polarization with BODIPY-labeled geldanamycin; conditions: BODIPY-GM 10 nM, Hsp90 30 nM
Summary of the method: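 Fluorescence polarization competition with BODIPY-geldanamycin (10 nM final) and human Hsp90 (30 nM final) in HEPES-KOH pH 7.3 buffer with molybdate, NP-40, DTT; 2% DMSO, overnight at room temperature. Read 485/530 nm; percent inhibition from mP normalized to DMSO controls, fluorescent-compound points excluded.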

`CC(C)NC(=O)NC(CCn1c(Sc2cc3c(cc2Br)OCO3)nc2c(N)ncnc21)C1CC1` (centres unmarked) [Example 678, N-(3-{6-Amino-8-[(6-bromo-1,3-benzodioxol-5-yl)thio]-9H-purin-9-yl}-1-cyclopropylpropyl)-N′-isopropylurea] was tested, and the “active in Luciferase refolding assay (asterisk footnote)” value (“active in Luciferase refolding assay” for short) (Luciferase refolding) was “*Fluorescent”.

`COc1ccc(OC)c(Sc2nc3c(N)ncnc3n2CCC(NC(=O)OC(C)(C)C)C2CC2)c1` (centres unmarked) [Example 664, tert-Butyl(3-{6-amino-8-[(2,5-dimethoxyphenyl)thio]-9H-purin-9-yl}-1-cyclopropylpropyl)carbamate] was tested, and the “active in Luciferase refolding assay” value (Luciferase refolding) was “*Fluorescent”.

In the case of `CC(C)(C)OC(=O)N1CCOC(CCn2cnc(N)c3nc(Sc4cc5c(cc4Br)OCO5)nc2-3)C1` (centres unmarked) [Example 368, tert-Butyl 2-(2-{6-amino-8-[(6-bromo-1,3-benzodioxol-5-yl)thio]-3H-purin-3-yl}ethyl)morpholine-4-carboxylate], the “active in Luciferase refolding assay” value (Luciferase refolding) is reported as “*Fluorescent”.

With `Nc1ncn(CCC2(F)C(F)(F)C(F)(F)C(F)(F)C(F)(F)C2(F)F)c2nc(Sc3cc4c(cc3Br)OCO4)nc1-2` [Example 377, 8-[(6-Bromo-1,3-benzodioxol-5-yl)thio]-3-[2-(undecafluorocyclohexyl)ethyl]-3H-purin-6-amine] the “active in Luciferase refolding assay” value (Luciferase refolding) was “*Fluorescent”.

For `COc1ccc(OC)c(Sc2nc3c(N)ncnc3n2CC(O)c2ccc(Cl)cc2Cl)c1` (centres unmarked) [Example 107, 2-[6-Amino-8-(2,5-dimethoxy-phenylsulfanyl)-purin-9-yl]-1-(2,4-dichloro-phenyl)ethanol], the “% Inhibition at 5 μM Compound Concentration” value (“% Inhibition” below) (purified human Hsp90) was 0%.

Molecule `COc1ccc(OC)c(Sc2nc3c(N)ncnc3n2CCC2CCN(C=O)CC2)c1` [Example 358, 4-(2-{6-Amino-8-[(2,5-dimethoxyphenyl)thio]-9H-purin-9-yl}ethyl)piperidine-1-carbaldehyde] has an IC50 (purified human Hsp90) of 0.45 µM.

`CC(C)(C)OC(=O)NCC(=O)N1CCC(CCn2c(Sc3cc4c(cc3Br)OCO4)nc3c(N)ncnc32)CC1` [Example 705, tert-Butyl{2-[4-(2-{6-amino-8-[(6-bromo-1,3-benzodioxol-5-yl)thio]-9H-purin-9-yl}ethyl)piperidin-1-yl]-2-oxoethyl}carbamate] gave an IC50 (purified human Hsp90) of 0.08 µM.

With `CCOc1cc(CCn2cnc(N)c3nc(Sc4cc5c(cc4Br)OCO5)nc2-3)ccc1OC` [Example 118, 8-(6-bromo-benzo[1,3]dioxol-5-ylsulfanyl)-3-[2-(3-ethoxy-4-methoxy-phenyl)-ethyl]-3H-purin-6-ylamine] the “% Inhibition” value (purified human Hsp90) was 0%.

For `COc1ccc(OC)c(Sc2nc3c(N)ncn(CCc4cccc(C(F)(F)F)c4)c-3n2)c1` [Example 80, 8-(2,5-dimethoxy-phenylsulfanyl)-3-[2-(3-trifluoromethyl-phenyl)-ethyl]-3H-purin-6-ylamine], the “% Inhibition” value (purified human Hsp90) was 10%.

With `Nc1ncnc2c1nc(Sc1cc3c(cc1Br)OCO3)n2CCC1CCN(C(=O)C2CCC2)CC1` [Example 512, 8-[(6-Bromo-1,3-benzodioxol-5-yl)thio]-9-{2-[1-(cyclobutylcarbonyl)piperidin-4-yl]ethyl}-9 H-purin-6-amine] the IC50 (purified human Hsp90) was 0.11 µM.

With `COc1ccc(CCn2c(Sc3cc(OC)ccc3OC)nc3c(N)ncnc32)cc1` [Example 247, 8-[(2,5-Dimethoxyphenyl)thio]-9-[2-(4-methoxyphenyl)ethyl]-9H-purin-6-amine] the IC50 (purified human Hsp90) was 3 µM.

In the case of `C[C@H](NC(=O)OC(C)(C)C)C(=O)N1CCCC(Cn2cnc(N)c3nc(Sc4cc5c(cc4Br)OCO5)nc2-3)C1` (stereo partly drawn) [Example 779, tert-butyl {(1S)-2-[3-({6-amino-8-[(6-bromo-1,3-benzodioxol-5-yl)thio]-3H-purin-3-yl}methyl)piperidin-1-yl]-1-methyl-2-oxoethyl}carbamate], the “% Inhibition” value (purified human Hsp90) is reported as 43.00%.

In the case of `Nc1ncnc2c1nc(Sc1cc3c(cc1Br)OCO3)n2CCCC1CCCCN1` (centres unmarked) [Example 646, 8-[(6-bromo-1,3-benzodioxol-5-yl)thio]-9-(3-piperidin-2-ylpropyl)-9H-purin-6-amine], the IC50 (purified human Hsp90) is reported as 0.06 µM.

In the case of `COC(=O)[C@H](CCSC)NC(=O)N1CCCC(CCn2c(Sc3cc4c(cc3Br)OCO4)nc3c(N)ncnc32)C1` (stereo partly drawn) [Example 507, Methyl N-{[3-(2-{6-amino-8-[(6-bromo-1,3-benzodioxol-5-yl)thio]-9 H-purin-9-yl}ethyl)piperidin-1-yl]carbonyl}-L-methioninate], the IC50 (purified human Hsp90) is reported as 0.405 µM.
